Patent US12077503B2, “Substituted cyclic amides and their use as herbicides” (FMC CORPORATION, priority 2015, dated 2024)
Read-outs that look alike come from different tables or passages of the source.

What was measured:
Format in all cases: in vivo
[1] = tested on: Kochia (Kochia scoparia); experiment: Test A postemergence; conditions: Bassia scoparia, post-emergence, 240 h; for pest or weed control at 125 g/ha: 125 g ai/ha
How it was run: (§1)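 In a loam soil and sand blend, planted seeds got a preemergence directed soil spray, and young plants at the one- to two-leaf stage, 2–10 cm high, got a postemergence application; ~10 d greenhouse hold; injury rated visually, 0 = none, 100 = complete control.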

[2] = tested on: giant foxtail (Setaria faberii); experiment: Test A postemergence; conditions: Setaria faberi, post-emergence, 240 h; for pest or weed control at 125 g/ha: 125 g ai/ha
How it was run: as §1

[3] = tested on: barnyardgrass (Echinochloa crus-galli); experiment: Test A postemergence; conditions: Echinochloa crus-galli, post-emergence, 240 h; for pest or weed control at 125 g/ha: 125 g ai/ha
How it was run: as §1

[4] = tested on: blackgrass (Alopecurus myosuroides); experiment: Test A postemergence; conditions: Alopecurus myosuroides, post-emergence, 240 h; for pest or weed control at 125 g/ha: 125 g ai/ha
How it was run: as §1

[5] = tested on: pigweed (Amaranthus retroflexus); experiment: Test A postemergence; conditions: Amaranthus retroflexus, post-emergence, 240 h; for pest or weed control at 125 g/ha: 125 g ai/ha
How it was run: as §1

[6] = tested on: ryegrass, Italian (Italian ryegrass, Lolium multiflorum); experiment: Test A postemergence; conditions: Lolium multiflorum, post-emergence, 240 h; for pest or weed control at 125 g/ha: 125 g ai/ha
How it was run: as §1

[7] = tested on: Galium (catchweed bedstraw, Galium aparine); experiment: Test A postemergence; conditions: Galium, post-emergence, 240 h; for pest or weed control at 125 g/ha: 125 g ai/ha
How it was run: as §1

[8] = tested on: corn (Zea mays); experiment: Test A postemergence; conditions: Zea mays, post-emergence, 240 h
How it was run: as §1

[9] = tested on: wheat (Triticum aestivum); experiment: Test A postemergence; conditions: Triticum aestivum, post-emergence, 240 h; for plant injury at 125 g/ha: 125 g ai/ha
How it was run: as §1

[10] = tested on: ragweed (common ragweed, Ambrosia elatior); experiment: Test A postemergence; conditions: Ambrosia artemisiifolia, post-emergence, 240 h; for pest or weed control at 125 g/ha: 125 g ai/ha
How it was run: as §1

[11] = tested on: barnyardgrass (Echinochloa crus-galli); experiment: Test B flooded paddy test; conditions: Echinochloa crus-galli, Flood, 250 g ai/ha
How it was run: (§2)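 Evaluation by eye, against controls, occurred 13–15 d post-treatment in a greenhouse, using a 0 (no effect) to 100 (complete control) scale. Application was into the paddy water, 3 cm deep over the soil, on 2-leaf plants.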

[12] = tested on: sedge, umbrella (small-flower umbrella sedge, Cyperus difformis); experiment: Test B flooded paddy test; conditions: Cyperus difformis, Flood, 250 g ai/ha
How it was run: as §2

[13] = tested on: rice (Oryra sativa); experiment: Test B flooded paddy test; conditions: Oryza sativa, Flood, 250 g ai/ha
How it was run: as §2

[14] = tested on: ducksalad (Heteranthera limosa); experiment: Test B flooded paddy test; conditions: Heteranthera limosa, Flood, 250 g ai/ha
How it was run: as §2

## CN1CC[C@H](c2cccc(OC(F)(F)F)c2)[C@@H](C(=O)Nc2ccccc2C(F)(F)F)C1=O [Compound 806]
[1]; postemergence, visual injury rating after approximately 10 d, read-out: Kochia plant response rating (0 to 100 scale, 0 no effect, 100 complete control)
  pest or weed control at 125 g/ha: 0%
[1]; Postemergence, 31 g ai/ha, visual injury after approx. 10 d, 0 to 100 scale, 0 no effect, 100 complete control, read-out: Plant response rating, Kochia
  pest or weed control at 31 g/ha: 0%
[2]; postemergence, visual injury rating after approximately 10 d, read-out: Foxtail, Giant plant response rating (0 to 100 scale, 0 no effect, 100 complete control)
  pest or weed control at 125 g/ha: 0%
[2]; Postemergence, 31 g ai/ha, visual injury after approx. 10 d, 0 to 100 scale, 0 no effect, 100 complete control, read-out: Plant response rating, Foxtail, Giant
  pest or weed control at 31 g/ha: 0%
[3]; postemergence, visual injury rating after approximately 10 d, read-out: Barnyardgrass plant response rating (0 to 100 scale, 0 no effect, 100 complete control)
  pest or weed control at 125 g/ha: 0%
[3]; Postemergence, 31 g ai/ha, visual injury after approx. 10 d, 0 to 100 scale, 0 no effect, 100 complete control, read-out: Plant response rating, Barnyardgrass
  pest or weed control at 31 g/ha: 0%
[4]; postemergence, visual injury rating after approximately 10 d, read-out: Blackgrass plant response rating (0 to 100 scale, 0 no effect, 100 complete control)
  pest or weed control at 125 g/ha: 0%
[4]; Postemergence, 31 g ai/ha, visual injury after approx. 10 d, 0 to 100 scale, 0 no effect, 100 complete control, read-out: Plant response rating, Blackgrass
  pest or weed control at 31 g/ha: 0%
[5]; postemergence, visual injury rating after approximately 10 d, read-out: Pigweed plant response rating (0 to 100 scale, 0 no effect, 100 complete control)
  pest or weed control at 125 g/ha: 0%
[5]; Postemergence, 31 g ai/ha, visual injury after approx. 10 d, 0 to 100 scale, 0 no effect, 100 complete control, read-out: Plant response rating, Pigweed
  pest or weed control at 31 g/ha: 0%
[6]; postemergence, visual injury rating after approximately 10 d, read-out: Ryegrass, Italian plant response rating (0 to 100 scale, 0 no effect, 100 complete control)
  pest or weed control at 125 g/ha: 0%
[6]; Postemergence, 31 g ai/ha, visual injury after approx. 10 d, 0 to 100 scale, 0 no effect, 100 complete control, read-out: Plant response rating, Ryegrass, Italian
  pest or weed control at 31 g/ha: 0%
[7]; postemergence, visual injury rating after approximately 10 d, read-out: Galium plant response rating (0 to 100 scale, 0 no effect, 100 complete control)
  pest or weed control at 125 g/ha: 0%
[7]; Postemergence, 31 g ai/ha, visual injury after approx. 10 d, 0 to 100 scale, 0 no effect, 100 complete control, read-out: Plant response rating, Galium
  pest or weed control at 31 g/ha: 0%
[8]; 125 g ai/ha, postemergence, visual injury rating after approximately 10 d, read-out: Corn plant response rating (0 to 100 scale, 0 no effect, 100 complete control)
  plant injury at 125 g/ha: 0%
[8]; Postemergence, 31 g ai/ha, visual injury after approx. 10 d, 0 to 100 scale, 0 no effect, 100 complete control
  Corn plant response rating (crop injury, 0 = no effect, 100 = complete kill) at 31 g/ha: 0%
[9]; postemergence, visual injury rating after approximately 10 d, read-out: Wheat plant response rating (0 to 100 scale, 0 no effect, 100 complete control)
  plant injury at 125 g/ha: 0%
[9]; Postemergence, 31 g ai/ha, visual injury after approx. 10 d, 0 to 100 scale, 0 no effect, 100 complete control, read-out: Plant response rating, Wheat
  plant injury at 31 g/ha: 0%
[10]; postemergence, visual injury rating after approximately 10 d, read-out: Ragweed plant response rating (0 to 100 scale, 0 no effect, 100 complete control)
  pest or weed control at 125 g/ha: 0%
[10]; Postemergence, 31 g ai/ha, visual injury after approx. 10 d, 0 to 100 scale, 0 no effect, 100 complete control, read-out: Plant response rating, Ragweed
  pest or weed control at 31 g/ha: 0%
[11]; scale of 0 to 100 where 0 is no effect and 100 is complete control, read-out: Barnyardgrass plant response rating
  pest or weed control at 250 g/ha: 0%
[12]; scale of 0 to 100 where 0 is no effect and 100 is complete control, read-out: Sedge, Umbrella plant response rating
  pest or weed control at 250 g/ha: 0%
[13]; scale of 0 to 100 where 0 is no effect and 100 is complete control, read-out: Rice plant response rating
  pest or weed control at 250 g/ha: 0%
[14]; scale of 0 to 100 where 0 is no effect and 100 is complete control, read-out: Ducksalad plant response rating
  pest or weed control at 250 g/ha: 75%

## O=C1NC[C@H](c2cncc(C(F)(F)F)c2)[C@H]1C(=O)Nc1cccc(F)c1F [Compound 1394]
[1]; Postemergence, visual injury after approx. 10 d, 0 to 100 scale, 0 no effect, 100 complete control, read-out: Plant response rating, Kochia
  pest or weed control at 125 g/ha: 0%
[1]; Postemergence, 500 g ai/ha, visual injury, 0 to 100 scale (0 no effect, 100 complete control), approx. 10 d, read-out: Plant response rating, Kochia
  pest or weed control at 500 g/ha: 0%
[2]; Postemergence, visual injury after approx. 10 d, 0 to 100 scale, 0 no effect, 100 complete control, read-out: Plant response rating, Foxtail, Giant
  pest or weed control at 125 g/ha: 80%
[2]; Postemergence, 500 g ai/ha, visual injury, 0 to 100 scale (0 no effect, 100 complete control), approx. 10 d, read-out: Plant response rating, Foxtail, Giant
  pest or weed control at 500 g/ha: 90%
[3]; Postemergence, visual injury after approx. 10 d, 0 to 100 scale, 0 no effect, 100 complete control, read-out: Plant response rating, Barnyardgrass
  pest or weed control at 125 g/ha: 90%
[3]; Postemergence, 500 g ai/ha, visual injury, 0 to 100 scale (0 no effect, 100 complete control), approx. 10 d, read-out: Plant response rating, Barnyardgrass
  pest or weed control at 500 g/ha: 90%
[4]; Postemergence, visual injury after approx. 10 d, 0 to 100 scale, 0 no effect, 100 complete control, read-out: Plant response rating, Blackgrass
  pest or weed control at 125 g/ha: 0%
[4]; Postemergence, 500 g ai/ha, visual injury, 0 to 100 scale (0 no effect, 100 complete control), approx. 10 d, read-out: Plant response rating, Blackgrass
  pest or weed control at 500 g/ha: 60%
[5]; Postemergence, visual injury after approx. 10 d, 0 to 100 scale, 0 no effect, 100 complete control, read-out: Plant response rating, Pigweed
  pest or weed control at 125 g/ha: 0%
[5]; Postemergence, 500 g ai/ha, visual injury, 0 to 100 scale (0 no effect, 100 complete control), approx. 10 d, read-out: Plant response rating, Pigweed
  pest or weed control at 500 g/ha: 20%
[6]; Postemergence, visual injury after approx. 10 d, 0 to 100 scale, 0 no effect, 100 complete control, read-out: Plant response rating, Ryegrass, Italian
  pest or weed control at 125 g/ha: 0%
[6]; Postemergence, 500 g ai/ha, visual injury, 0 to 100 scale (0 no effect, 100 complete control), approx. 10 d, read-out: Plant response rating, Ryegrass, Italian
  pest or weed control at 500 g/ha: 20%
[7]; Postemergence, visual injury after approx. 10 d, 0 to 100 scale, 0 no effect, 100 complete control, read-out: Plant response rating, Galium
  pest or weed control at 125 g/ha: 50%
[7]; Postemergence, 500 g ai/ha, visual injury, 0 to 100 scale (0 no effect, 100 complete control), approx. 10 d, read-out: Plant response rating, Galium
  pest or weed control at 500 g/ha: 60%
[8]; Postemergence, 125 g ai/ha, visual injury after approx. 10 d, 0 to 100 scale, 0 no effect, 100 complete control
  Corn plant response rating (crop injury, 0 = no effect, 100 = complete kill) at 125 g/ha: 40%
[8]; Postemergence, 500 g ai/ha, visual injury, 0 to 100 scale (0 no effect, 100 complete control), approx. 10 d
  Corn plant response rating (crop injury, 0 = no effect, 100 = complete kill) at 500 g/ha: 70%
[9]; Postemergence, visual injury after approx. 10 d, 0 to 100 scale, 0 no effect, 100 complete control, read-out: Plant response rating, Wheat
  plant injury at 125 g/ha: 0%
[9]; Postemergence, 500 g ai/ha, visual injury, 0 to 100 scale (0 no effect, 100 complete control), approx. 10 d, read-out: Plant response rating, Wheat
  plant injury at 500 g/ha: 60%
[10]; Postemergence, visual injury after approx. 10 d, 0 to 100 scale, 0 no effect, 100 complete control, read-out: Plant response rating, Ragweed
  pest or weed control at 125 g/ha: 0%
[10]; Postemergence, 500 g ai/ha, visual injury, 0 to 100 scale (0 no effect, 100 complete control), approx. 10 d, read-out: Plant response rating, Ragweed
  pest or weed control at 500 g/ha: 20%
[11]; 360 h, visually evaluated after 13 to 15 d, read-out: Plant response rating, Barnyardgrass (0 to 100 scale where 0 is no effect and 100 is complete control)
  pest or weed control at 250 g/ha: 40%
[12]; 360 h, visually evaluated after 13 to 15 d, read-out: Plant response rating, Sedge, Umbrella (0 to 100 scale where 0 is no effect and 100 is complete control)
  pest or weed control at 250 g/ha: 0%
[13]; 360 h, visually evaluated after 13 to 15 d, read-out: Plant response rating, Rice (0 to 100 scale where 0 is no effect and 100 is complete control)
  pest or weed control at 250 g/ha: 10%
[14]; 360 h, visually evaluated after 13 to 15 d, read-out: Plant response rating, Ducksalad (0 to 100 scale where 0 is no effect and 100 is complete control)
  pest or weed control at 250 g/ha: 75%
